Our source for the IC50 values is US8993585B2, “Cyclic amine substituted pyrimidinediamines as PKC inhibitors” (Rigel Pharmaceuticals, Inc., priority 2007, dated 2015).

One test has as its target T1, PKC theta (Homo sapiens, UniProt Q04759).
T1 construct: purchased Upstate Biotechnologies, Temecula, CA 14-444
In words: PKC assay, fluorescence polarization (Example 2), PKC theta. The format is biochemical. The note with it: 5 μM ATP. The essentials: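 Phosphorylated peptide product detected by fluorescence polarization, with EDTA quench plus peptide tracer and antibody. Reaction in 20 mM HEPES pH 7.4, 5 mM MgCl2, 0.2 mM CaCl2, 1 mM DTT, 0.02% Brij-35, phosphatidylserine and dioleoyl-sn-glycerol, with 5 μM ATP and 5 μM peptide. Started with enzyme, 20 min at room temperature.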

Another test addresses T2, PKC epsilon (Homo sapiens, UniProt Q02156).
T2 construct: purchased Upstate Biotechnologies, Temecula, CA 14-518
T2 sequence (Q02156 1-737): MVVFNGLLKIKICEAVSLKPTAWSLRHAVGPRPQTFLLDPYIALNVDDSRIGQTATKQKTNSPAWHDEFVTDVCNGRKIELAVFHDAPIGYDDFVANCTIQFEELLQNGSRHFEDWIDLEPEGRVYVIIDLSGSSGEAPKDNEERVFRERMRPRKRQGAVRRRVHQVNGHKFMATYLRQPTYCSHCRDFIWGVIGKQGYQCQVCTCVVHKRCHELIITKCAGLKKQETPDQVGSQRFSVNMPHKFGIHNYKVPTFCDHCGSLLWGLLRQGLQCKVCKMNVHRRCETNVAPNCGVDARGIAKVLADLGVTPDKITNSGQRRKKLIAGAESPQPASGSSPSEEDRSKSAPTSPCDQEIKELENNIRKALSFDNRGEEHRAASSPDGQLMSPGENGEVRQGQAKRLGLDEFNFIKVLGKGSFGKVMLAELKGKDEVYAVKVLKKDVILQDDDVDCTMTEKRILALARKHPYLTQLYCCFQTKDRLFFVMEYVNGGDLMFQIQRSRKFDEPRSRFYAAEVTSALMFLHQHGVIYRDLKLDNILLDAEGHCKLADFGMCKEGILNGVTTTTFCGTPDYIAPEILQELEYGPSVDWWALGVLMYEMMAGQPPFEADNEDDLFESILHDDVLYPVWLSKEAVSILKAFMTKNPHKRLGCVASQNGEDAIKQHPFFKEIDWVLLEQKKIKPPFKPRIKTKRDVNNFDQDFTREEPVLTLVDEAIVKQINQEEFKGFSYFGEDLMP
In words: PKC assay, fluorescence polarization (Example 2), PKC epsilon. The following applies: 5 μM ATP. Type of test: biochemical. The method, then: The inhibition of PKC activity was measured by monitoring the production of phosphorylated peptide by fluorescence polarization at different concentrations of the inhibitor. Reactions were carried out in 96-well plate format with a total volume of 20 μL containing 20 mM HEPES, pH 7.4, 5 mM MgCl2, 0.2 mM CaCl2, 1 mM DTT, 0.02% Brij-35, 0.1 mg/mL phosphatidylserine, 0.02 mg/mL dioleoyl-sn-glycerol and 5 μM each of ATP and the peptide substrate. Compounds were first diluted serially in DMSO and then transferred to a solution containing the above concentrations of HEPES, MgCl2, CaCl2, DTT, and Brij-35 to yield 5× compound solutions in 2% DMSO, which was then added to the reaction solution. Reactions were initiated by the addition of PKC at a typical concentration as described in Table VI, and then allowed to incubate at room temperature for 20 min. At the end of this time, a combination of quench (EDTA) and detection (peptide tracer and antibody) reagents was added using the protocol of Invitrogen P2748.
On the technique in general: Polarisation of emitted light reports the rotation of a fluorescent probe.

The subject of another test is Human primary T cells. In words: IL-2 ELISA, Human Primary T Cell, Anti-CD3+CD28+ (Example 3). The format is cell-based. The following applies: anti-CD3+CD28 stimulation. The essentials: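 Human primary T cells, 100,000 per well, were pre-incubated with compound in Yssel's medium for 1 h at 37 °C. The counter-assay used 0.5 ng/ml PMA with 0.1 uM ionomycin final.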
On the technique in general: An ELISA detects its analyte on a solid surface through an enzyme-linked reagent.

T1 sequence (Q04759 whole entry): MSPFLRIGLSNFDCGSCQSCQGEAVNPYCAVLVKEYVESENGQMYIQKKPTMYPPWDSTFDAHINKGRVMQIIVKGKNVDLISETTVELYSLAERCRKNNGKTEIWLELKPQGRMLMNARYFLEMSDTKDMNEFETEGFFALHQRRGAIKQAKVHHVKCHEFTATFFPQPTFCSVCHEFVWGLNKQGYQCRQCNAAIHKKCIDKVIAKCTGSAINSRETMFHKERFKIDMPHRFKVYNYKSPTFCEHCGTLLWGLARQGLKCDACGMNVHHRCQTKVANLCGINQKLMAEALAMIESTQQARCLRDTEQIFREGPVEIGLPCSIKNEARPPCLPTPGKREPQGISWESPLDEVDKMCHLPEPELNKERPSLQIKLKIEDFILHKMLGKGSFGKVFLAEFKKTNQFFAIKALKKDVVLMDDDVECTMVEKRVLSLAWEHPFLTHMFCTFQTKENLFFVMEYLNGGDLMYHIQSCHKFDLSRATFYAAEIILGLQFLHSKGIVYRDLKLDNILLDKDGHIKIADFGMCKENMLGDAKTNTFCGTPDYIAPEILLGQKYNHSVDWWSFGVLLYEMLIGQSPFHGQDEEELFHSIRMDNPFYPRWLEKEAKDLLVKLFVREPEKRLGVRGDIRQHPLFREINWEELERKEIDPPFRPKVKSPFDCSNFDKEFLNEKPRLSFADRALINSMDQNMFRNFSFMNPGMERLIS

A word on the IC50: it is the concentration that gives 50% inhibition. For `COc1cc(Nc2ncc(C#N)c(NC3CC(C)(C)N(C)C(C)(C)C3)n2)cc(OC)c1` [Compound I-364], the IC50 at PKC theta came out at 0.0041 µM; on PKC epsilon, 0.0278 µM; in the test on Human primary T cells (Homo sapiens, T-cell, 24 h) it was 0.27 µM.
As to `COc1cc(Nc2ncc(F)c(NC3CC(C)(C)N(C)C(C)(C)C3)n2)cc(OC)c1` [Compound I-129], the IC50 on PKC theta is 0.00419 µM; on PKC epsilon it was 0.0268 µM; with Human primary T cells (Homo sapiens, T-cell, 24 h), 0.214 µM.
The like results for `CN1C(C)(C)CC(Nc2nc(Nc3ccc4ncccc4c3)ncc2F)CC1(C)C` [II-1] were, in that order, 0.00966 µM, 0.144 µM and 0.612 µM.
As to `CN1C(C)(C)CC(Nc2nc(Nc3cccc(C#N)c3)ncc2C#N)CC1(C)C` [Compound I-97], the IC50 at PKC theta stood at 0.00158 µM; on PKC epsilon it was 0.175 µM; in the test with Human primary T cells (Homo sapiens, T-cell, 24 h), 0.289 µM.
Consider `CN1C(C)(C)CC(Nc2nc(Nc3ccc(Cl)c(C#N)c3)ncc2Cl)CC1(C)C` [Compound I-165], for which the IC50 was 0.00256 µM at PKC theta; 0.311 µM on PKC epsilon; 0.292 µM in the test on Human primary T cells (Homo sapiens, T-cell, 24 h).
For `CN1C(C)(C)CC(Nc2nc(Nc3cccc(-c4ccoc4)c3)ncc2F)CC1(C)C` [Compound I-105], the IC50 is 0.026 µM at PKC theta; 0.154 µM at PKC epsilon; 0.221 µM in the test on Human primary T cells (Homo sapiens, T-cell, 24 h).
For the compound `COc1cc(Nc2ncc(C(F)(F)F)c(NC3CC(C)(C)N(C)C(C)(C)C3)n2)cc(-n2cnnn2)c1` [Compound I-356], the IC50 at PKC theta worked out at 0.00726 µM; on PKC epsilon, 0.043 µM; in the test with Human primary T cells (Homo sapiens, T-cell, 24 h), 0.096 µM.
Turning to `CN1C(C)(C)CC(Nc2nc(Nc3ccc(-n4cccc4)c(C#N)c3)ncc2F)CC1(C)C` [Compound I-148], the IC50 at PKC theta came to 0.0135 µM; on PKC epsilon, 0.15 µM; in the test with Human primary T cells (Homo sapiens, T-cell, 24 h), 0.223 µM.
For `Cc1ccc(Nc2ncc(C#N)c(NC3CC(C)(C)NC(C)(C)C3)n2)cc1-n1cnnn1` [Compound I-461], the IC50 on PKC theta is 0.0008 µM; on PKC epsilon it was 0.05 µM; in the test with Human primary T cells (Homo sapiens, T-cell, 24 h), 0.23 µM.
As for `CN1C(C)(C)CC(Nc2nc(Nc3ccc(N4CCN(S(C)(=O)=O)CC4)c(Cl)c3)ncc2C#N)CC1(C)C` [Compound I-102], the IC50 at PKC theta worked out at 0.0126 µM; at PKC epsilon, 0.218 µM; in the test with Human primary T cells (Homo sapiens, T-cell, 24 h), 0.217 µM.
Consider `CSc1nnnn1-c1cccc(Nc2ncc(C#N)c(NC3CC(C)(C)NC(C)(C)C3)n2)c1` [Compound I-465], for which the IC50 on PKC theta was 0.0034 µM; on PKC epsilon it was 0.115 µM; in the test on Human primary T cells (Homo sapiens, T-cell, 24 h) it was 0.28 µM.
For `CN1C(C)(C)CC(Nc2nc(Nc3ccc(N4CCCC4)c(C(F)(F)F)c3)ncc2F)CC1(C)C` [Compound I-232] the same measures were 0.0634 µM, 0.042 µM and 0.894 µM.
As for `CN1C(C)(C)CC(Nc2nc(Nc3ccc(N4CCOCC4)c(OC(F)F)c3)ncc2F)CC1(C)C` [Compound I-235], the IC50 is 0.00127 µM on PKC theta; 0.0168 µM at PKC epsilon; 0.156 µM in the test with Human primary T cells (Homo sapiens, T-cell, 24 h).
The like results for `CCN1C(=O)C(C)(C)Oc2cc(Nc3ncc(Br)c(NC4CC(C)(C)N(C)C(C)(C)C4)n3)ccc21` [II-128] were, in that order, 0.0005 µM, 0.202 µM and 0.08 µM.
The like results for `CN1C(C)(C)CC(Nc2nc(Nc3cccc(Br)c3)ncc2F)CC1(C)C` [Compound I-104] were, in that order, 0.0158 µM, 0.0628 µM and 0.0798 µM.
`CN1C(C)(C)CC(Nc2nc(Nc3ccc(C(F)(F)F)c(N4CCN(S(C)(=O)=O)CC4)c3)ncc2F)CC1(C)C` [Compound I-216]: the IC50 came out at 0.00599 µM at PKC theta; 0.029 µM at PKC epsilon; 0.174 µM in the test on Human primary T cells (Homo sapiens, T-cell, 24 h).
As for `CN1C(=O)C(F)(F)Oc2cc(Nc3ncc(F)c(NC4CC(C)(C)N(C)C(C)(C)C4)n3)ccc21` [II-8], the IC50 at PKC theta came out at 0.00243 µM; on PKC epsilon, 0.0579 µM; in the test on Human primary T cells (Homo sapiens, T-cell, 24 h), 0.09 µM.
Regarding `Cc1ccc(Nc2ncc(F)c(NC3CC(C)(C)N(C)C(C)(C)C3)n2)cc1-c1ccncc1` [Compound I-187], the IC50 on PKC theta is 0.00492 µM; at PKC epsilon, 0.051 µM; in the test with Human primary T cells (Homo sapiens, T-cell, 24 h), 0.305 µM.
For the compound `CN1C(C)(C)CC(Nc2nc(Nc3ccc(OC(F)F)c(OC(F)F)c3)ncc2F)CC1(C)C` [Compound I-344], the IC50 on PKC theta came to 0.00654 µM; at PKC epsilon, 0.0407 µM; with Human primary T cells (Homo sapiens, T-cell, 24 h), 0.205 µM.
The like results for `CCCN1CCN(c2ccc(Nc3ncc(F)c(NC4CC(C)(C)N(C)C(C)(C)C4)n3)cc2C(F)(F)F)CC1` [Compound I-247] were, in that order, 0.0199 µM, 0.0669 µM and 0.131 µM.
As for `CCN1C(=O)C(F)(F)Oc2cc(Nc3ncc(F)c(NC4CC(C)(C)N(C)C(C)(C)C4)n3)cnc21` [II-27], the IC50 on PKC theta amounted to 0.00388 µM; on PKC epsilon it was 0.0658 µM; in the test with Human primary T cells (Homo sapiens, T-cell, 24 h), 0.21 µM.
For `CCOc1ccc(Nc2ncc(C#N)c(NC3CC(C)(C)NC(C)(C)C3)n2)cc1-n1nnnc1CC` [Compound I-469] the same measures were 0.0015 µM, 0.129 µM and 0.12 µM.
`COc1cc(Nc2ncc(Br)c(NC3CC(C)(C)N(C)C(C)(C)C3)n2)cc(OC)c1` [Compound I-422]: the IC50 was 0.0102 µM at PKC theta; 0.165 µM at PKC epsilon; 0.25 µM in the test on Human primary T cells (Homo sapiens, T-cell, 24 h).
With `COc1ccc(Nc2ncc(C(F)(F)F)c(NC3CC(C)(C)N(C)C(C)(C)C3)n2)cc1OC(F)F` [Compound I-350], the IC50 at PKC theta is 0.00341 µM; at PKC epsilon, 0.589 µM; in the test on Human primary T cells (Homo sapiens, T-cell, 24 h), 0.161 µM.
`CCN1C(=O)C(C)(C)Oc2cc(Nc3ncc(F)c(NC4CC(C)(C)N(C)C(C)(C)C4)n3)ccc21` [II-35]: the IC50 was found to be 0.00894 µM at PKC theta; 0.159 µM at PKC epsilon; 0.142 µM with Human primary T cells (Homo sapiens, T-cell, 24 h).
As to `COc1ccc(Nc2ncc(C#N)c(NC3CC(C)(C)N(C)C(C)(C)C3)n2)cc1OC(F)F` [Compound I-366], the IC50 at PKC theta amounted to 0.00171 µM; on PKC epsilon, 0.0896 µM; in the test with Human primary T cells (Homo sapiens, T-cell, 24 h), 0.122 µM.
As for `CC1(C)CC(Nc2nc(Nc3cc(OCC(F)(F)F)cc(OCC(F)(F)F)c3)ncc2F)CC(C)(C)N1` [Compound I-375], the IC50 on PKC theta was 0.0012 µM; on PKC epsilon it was 0.2 µM; with Human primary T cells (Homo sapiens, T-cell, 24 h) it was 0.35 µM.
In the case of `CN1CCN(c2ncc(Nc3ncc(F)c(NC4CC(C)(C)N(C)C(C)(C)C4)n3)cc2C(F)(F)F)CC1` [Compound I-273], the figures for the IC50 on PKC theta, at PKC epsilon and with Human primary T cells (24 hours) were 0.00334 µM, 0.00487 µM and 0.217 µM, respectively.
As for `CN1C(C)(C)CC(Nc2nc(Nc3cccc(-n4cnnn4)c3)ncc2F)CC1(C)C` [Compound I-357], the IC50 at PKC theta was 0.00511 µM; on PKC epsilon, 0.00711 µM; with Human primary T cells (Homo sapiens, T-cell, 24 h), 0.0676 µM.
The like results for `CN1C(C)(C)CC(Nc2nc(Nc3ccc(N4CCSCC4)c(C#N)c3)ncc2F)CC1(C)C` [Compound I-199] were, in that order, 0.00288 µM, 0.00958 µM and 0.135 µM.
`CN1C(C)(C)CC(Nc2nc(Nc3cc(Cl)cc(Cl)c3)ncc2F)CC1(C)C` [Compound I-103]: the IC50 on PKC theta came out at 0.0504 µM; at PKC epsilon it was 0.413 µM; in the test on Human primary T cells (Homo sapiens, T-cell, 24 h), 0.129 µM.
With `CCN1C(=O)C(C)(C)Oc2cc(Nc3ncc(C#N)c(NC4CC(C)(C)N(C)C(C)(C)C4)n3)ccc21` [II-45], the IC50 at PKC theta was 0.0018 µM; on PKC epsilon, 0.179 µM; in the test on Human primary T cells (Homo sapiens, T-cell, 24 h) it was 0.103 µM.
